No end group written: not given here.
Assays:
WEHI cells [1] = assay: T cell clones from mice immunised with gp75-targeted Der p 1 peptides, lysis of WEHI cells; format: in vivo, mouse; conditions: 20 μg SC on aluminium hydroxide, three injections
Experimental: Groups of BALB/c mice were immunised subcutaneously (20 μg) with the experimental peptide [SEQ ID. NO: 10] or the control peptide [SEQ ID, NO: 11] adsorbed onto aluminium hydroxide. Three injections were performed at 2-week intervals. Ten days after the last immunisation, mice were sacrificed and CD4+ T cells prepared from the spleen using magnetic beads, CD4+ T cells (2×10^6 cells) were then stimulated in vitro by the Der p 1 T cell epitope (20 μg) presented by adherent spleen cells serving as antigen-presenting cells.
Ten days after stimulation the number of specific T cell lines obtained in each group was calculated by limiting dilution analysis. Each cell line was evaluated for its capacity to lyse WEHI cells, a B cell line selected for its efficacy in antigen-presentation by MHC class-II determinants, as described in Example 6. Only cells obtained from animals immunised with the peptide containing the glutaredoxin consensus sequence had acquired the capacity to lyse WEHI cells, and lysis occurs only in the presence of the cognate Der p 1 T cell epitope.

[2] = tested on: regulatory T cell clones with cytolytic activity; assay: activation of cytolytic regulatory T cell clones by peptide-loaded APC; format: cell-based; conditions: versus C-x-x-S counterpart
Experimental: Antigen-presenting cells were loaded with p21-35 in its native configuration [SEQ ID. NO: 2] or p21-35 in which serine in position 24 is substituted by cysteine […] [SEQ ID. NO: 29]. This substitution creates a redox moiety of the type C-x-x-C.
Several regulatory T cell clones with cytolytic activity were incubated with APC. […] The granzymes are two of the key players in induction of apoptosis of target cells.

[3] = tested on: Treg clone specific for p21-35; assay: oxidative metabolism (ROS, carboxy-H2DCFDA) of cognate Treg cells; format: cell-based, mouse; conditions: 20 μg/ml, 90 minutes
Experimental: A Treg clone (10^5 cells) specific for p21-35 was incubated for 90 minutes with PBS (FIG. 5, panel A), peptide p21-35 (20 μg/ml in 200 μl PBS; FIG. 5, panel B) or tert-butyl hydroperoxide (100 μM in PBS; FIG. 5, panel C), which is an inducer of Reactive Oxygen Species (ROS). Cells were then labelled for 30 minutes with carboxy-H2DCFDA (12 μM), a fluorogenic marker for ROS in live cells, and then analysed by flow cytometry.

CD4+ effector T cells = assay: activation of CD4+ effector T cells from patients sensitised to Der p 2; format: cell-based, human
Excerpt: Chemokines involved in attracting T lymphocytes to the lung are not precisely identified. The cytolytic Tregs described here express CD103 but not CCR7, which should confer them with the capacity to migrate to inflamed tissues. Other chemokines such as CCR5 and CCR3 were not detected. […] In an experimental model of asthma, including peripheral sensitisation and allergen inhalation, it was shown that Tregs have the capacity to prevent and suppress both inflammatory infiltration and airway hyperreactivity, which are the hallmarks of bronchial asthma. An LPS-free recombinant form of a main allergen, Der p 2, was used, which is involved in a large proportion of patients suffering from allergic asthma.

WEHI cells [4] = assay: apoptosis of peptide-loaded WEHI cells by cytolytic T cell clones, with inhibitors; format: cell-based, mouse; conditions: two CFSE-labelled populations, G121 Treg, 18 hours
Experimental: For inhibition of GZ-B activity, Z-AAD-CMK (Calbiochem) or 3,4-dichloroiso-coumarin (DCIC) (SIGMA) were added at indicated concentrations during all the co-culture period.
Experiments were carried out with p21-35-loaded CD11c dendritic (FIG. 13b: left panel) or WEHI cells (FIG. 13b: right panel). Upon incubation with R3TB7 virtually all dendritic cells (DC) or Wehi cells were induced into apoptosis as measured by caspase 3 activation.
Apoptosis can be induced by either the Fas-FasL pathway or by secretion of cytotoxic granules containing granzymes. Attempts were made to inhibit each of these pathways. Addition of increasing concentrations of an antibody towards FasL, or of granzyme B inhibitors, to a cell culture containing p21-35 loaded WEHI cells and a cytolytic T cell clone, increased the number of surviving WEHI cells in a dose-dependent manner (FIG. 13c). In a number of experiments it was shown that the anti-FasL antibody restored up to 80% of WEHI cell survival.
To further ascertain that APC lysis required direct contact with cytolytic T cells through MHC class II presentation of p21-35, an experiment was carried out in which two identical populations of Wehi cells were loaded with either p21-35 or with an irrelevant peptide (p71-85). These two populations could be distinguished by differential CFSE labelling. It can be seen from FIG. 13e that, while WEHI cells presenting p21-35 were fully lysed, only 40% of p71-85-loaded cells were affected.

p21-35-loaded Wehi cells = assay: derivatisation of T cell clones after immunisation, screening for apoptosis of p21-35-loaded Wehi cells; format: in vivo, mouse
Experimental: Derivatisation of regulatory T cell clones. BALB/c mice were immunised by 3 footpad injections of 20 μg/ml peptide mp21-35Asn in alum at 2 weeks intervals. Ten days after the last injection, spleen CD4+ T cells were stimulated with T cell depleted splenocytes from naïve mice in the presence of peptide mp21-35Asn. After 10 days, cells were restimulated in the same conditions but with 10 U/ml mouse II-2 (Roche). After the fifth restimulation, T cells were subcloned in the presence of 10 U/ml IL-2 by limiting dilution. The subsequent specific stimulations were carried out in the presence of 20 U/ml mouse IL-2. The G121 T cell line was derived as previously described (Janssens et al. (2003) J. Immunol. 171, 4604-4612.
T cell clones were derived for phenotypic analysis from the spleen of mice injected with either mp21-35Asn in alum, mp21-35Asn in CFA/IFA (complete or incomplete Freund adjuvant), Der p 2 or saline as a control. A total of 17 clones were obtained, which expansion was fully dependent of addition of IL-2. These clones were maintained at rest for 10 days before assessing expression of CD25. Positive clones were then screened for their capacity to induce apoptosis of p21-35-loaded Wehi cells using annexin V binding as readout.

BALB/c mice [5] = assay: T cell clones from BALB/c mice immunised with Der p 1 derived peptide; format: in vivo, mouse; conditions: 20 μg subcutaneous, 3 injections
Experimental: Two groups of BALB/c mice were immunised by the subcutaneous route with either 20 μg of peptide with a T cell epitope sequence of the allergen Der p1 (SNYCQIYPPNANKIR [SEQ ID. NO: 5]) or a modified version thereof CGFS SNYCQIYPPNANKIR [SEQ ID. NO: 7] having at the N-terminus the sequence CGFS [SEQ ID. NO: 6].
After 3 injections, mice were sacrificed and CD4+ T cells were purified from the spleen and cloned by limiting dilution. T cell clones obtained from mice immunised with the SNYCQIYPPNANKIR [SEQ ID. […] Mice immunised with the peptide CGFS SNYCQIYPPNANKIR [SEQ ID.

BALB/c mice [6] = assay: beta-lactoglobulin allergy mouse model; format: in vivo
Experimental: BALB/c mice are immunised by 2 SC injections with 20 μg of the peptide of sequence CHGC AQKKIIAEK [SEQ ID. NO: 30] in alum. This is followed 15 days later by intraperitoneal sensitisation to BLG (5 μg in alum), on 2 occasions at a fortnight interval. Alternatively, peptide administration is given 15 days after IP sensitisation to BLG.
Hypersensitivity to BLG is verified in the mouse by assessing bronchial hyperreactivity after intranasal administration of BLG. All mice are submitted to intranasal administration of 10 μg of BLG in saline 10 days after the last injections. A control group is included in which intraperitoneal sensitisation is carried out without peptide immunisation.

BALB/c mice [7] = assay: adoptive transfer of cytolytic T cell clones in asthma elicited by nasal instillation of Der p 1; format: in vivo, mouse
Experimental: BALB/c mice were submitted to 2 series of 3 daily nasal instillations separated by 1 week, using 100 μg of the Der p 1 allergen. The day after the last nasal instillation, mice are sacrificed and checked for the presence of alterations characteristic of allergic asthma in the bronchoalveolar space and lung.
Two additional groups of mice are adoptively transferred with cytolytic T cell clones obtained as described in Example 11 using the Der p 1 peptide with the motif, either prior to or after the first series of nasal instillations.
BALF differential cell counts were carried out 4 days after the last series of nasal instillations (6 BALB/c per group). Cells were obtained by bronchoalveolar lavage of lungs and identified on cytospins as macrophages, neutrophils, eosinophils or lymphocytes. Mice received 2 series of 3 nasal instillations with either 100 μg Der p 1 (model) or NaCl (negative).
Broncho-alveolar lavage fluids were tested for the presence of cytokines (Table 6).

G221N = assay: peptide processing assay with effector T cell clone G221N; format: cell-based, mouse; conditions: NaN3/deoxyglucose, colchicine, chloroquine
[8] = prior to or after sensitisation

Molecule: SNYCQIYPPNANKIR SGGSGGSGG IITIAVVAALLLVAAIFGVASCLIRSRSTKNEANQPLLTDS [SEQ ID. NO: 11, reference compound]
- T cell clones with Treg (cytotoxic) properties derived from immunised mice (WEHI cells [1]): not from mice that received the control peptide

Molecule: CHGCEPCIIHRGKPF (p21-35 peptide of Der p2 allergen mutated at residue 24) [SEQ ID. NO: 29]
- T cell activation assessed by cytokine production [2]: higher degree of T cell activation
- transcription of mRNA for FasL and granzymes [2]: more than its C-x-x-S counterparts

Molecule: CHGSEPCIIHRGKPF (the p21-35 peptide of Der p 2 allergen) [amino acids 21 to 35 of Der p 2]
- fluorescence intensity due to ROS increase [3]: doubling
- activation of patients' CD4+ effector T cells (CD4+ effector T cells): activated CD4+ effector T cells from patients sensitised to Der p 2
- lysis of WEHI cells loaded with the peptide (WEHI cells [4]): fully lysed

Molecule: QYIKANSKFIGITELGGCHGSEPCNIHRGKPF (not fully specified (residues 18, 24); cysteine pairing not given here) [mp21-35Asn]
- cytolytic clones among CD4+CD25+ T cell clones (p21-35-loaded Wehi cells; immunised in CFA/IFA): 0/5
- cytolytic clones among CD4+CD25+ T cell clones (p21-35-loaded Wehi cells; immunised in alum): 8/8

Molecule: p71-85: alternative major T cell epitope (p71-85) located on Der p 2 (NACHYMKCPLVKGQQ; UniProt P49278 88-102, looked up, fragment) [reference compound]
- lysis of WEHI cells loaded with the peptide (WEHI cells [4]): 40%
- induction of cytolytic Tregs towards the epitope (p21-35-loaded Wehi cells; mouse, in vivo): not possible to induce cytolytic Tregs

Molecule: SNYCQIYPPNANKIR (dominant T cell epitope of Der p 1 allergen) [SEQ ID. NO: 5, reference compound]
- type of T cell clones obtained from immunised mice (BALB/c mice [5]): produced effector CD4+ T cells

Molecule: CHGC AQKKIIAEK (CHGCAQKKIIAEK; thioredox motif sequence CHGC linked to T cell epitope of Bovine beta-lactoglobulin (BLG)) [SEQ ID. NO: 30]
- capacity to react to BLG nasal instillation (BALB/c mice [6]; 20 μg in alum, 2 SC injections prior to or after sensitisation): completely lost the capacity to react to BLG nasal instillation
- eosinophils in bronchoalveolar lavage fluid (BALB/c mice [6]; [8]): lack of eosinophils
- hyperreactivity upon challenge with methacholine (BALB/c mice [6]; [8]): absence of hyperreactivity

Molecule: CGFS SNYCQIYPPNANKIR SGGSGGSGG IITIAVVAALLLVAAIFGVASCLIRSRSTKNEANQPLLTDS [SEQ ID. NO: 10]
- T cell clones with Treg (cytotoxic) properties derived from immunised mice (WEHI cells [1]): All T cell clones obtained after treatment with the construct and re-stimulated in vitro were cytotoxic

Molecule: CGFSSNYCQIYPPNANKIR (glutaredoxin-like consensus sequence and dominant T cell epitope of the Der p 1 allergen) [SEQ ID. NO: 7]
- BAL IFN-gamma (BALB/c mice [7]; Prevention): 0 pg/mL
- BAL IL-2 (BALB/c mice [7]; Prevention): 0.7 pg/mL
- BAL IL-4 (BALB/c mice [7]; Prevention): 0 pg/mL
- BAL IL-5 (BALB/c mice [7]; Prevention): 0.3 pg/mL
- BAL IL-10 (BALB/c mice [7]; Prevention): 10 pg/mL
- BAL IL-13 (BALB/c mice [7]; Prevention): 0.2 pg/mL
- BAL TGF-beta (BALB/c mice [7]; Prevention): 5.8 pg/mL
- BAL TNF-alpha (BALB/c mice [7]; Prevention): 0.7 pg/mL
- BAL IFN-gamma (BALB/c mice [7]; Suppression): 0 pg/mL
- BAL IL-2 (BALB/c mice [7]; Suppression): 0.8 pg/mL
- BAL IL-4 (BALB/c mice [7]; Suppression): 0.7 pg/mL
- BAL IL-5 (BALB/c mice [7]; Suppression): 0.5 pg/mL
- BAL IL-10 (BALB/c mice [7]; Suppression): 2 pg/mL
- BAL IL-13 (BALB/c mice [7]; Suppression): 0.3 pg/mL
- BAL TGF-beta (BALB/c mice [7]; Suppression): 0 pg/mL
- BAL TNF-alpha (BALB/c mice [7]; Suppression): 0 pg/mL
- type of T cell clones obtained from immunised mice (BALB/c mice [5]): produced T cell clones with cytolytic properties

B1: Der p 2: Recombinant full-length Der p 2 produced in Pichia pastoris (protein, UniProt P49278 1-146, looked up)
chain: MMYKILCLSLLVAAVARDQVDVKDCANHEIKKVLVPGCHGSEPCIIHRGKPFQLEAVFEANQNTKTAKIEIKASIDGLEVDVPGIDPNACHYMKCPLVKGQQYDIKYTWNVPKIAPKSENVVVTVKVMGDDGVLACAIATHAKIRD
modifications: full-length recombinant, Pichia pastoris
notes: Recombinant full-length Der p 2 produced in Pichia pastoris
- requirement for internalisation, fusion with and acidification of late endosomes (G221N): required internalisation into antigen-presenting cells
- cytolytic clones among CD4+CD25+ T cell clones (p21-35-loaded Wehi cells; mice immunised with Der p 2): 0/4

Reference: patent publication US11718650B2, “Immunogenic peptides and their use in immune disorders” (IMCYSE SA, priority 2006, dated 2023)
